Here are results for 43 molecules from patent publication US9029366B2, “Substituted bicyclic alkoxy pyrazole analogs as allosteric modulators of mGluR5 receptors” (Vanderbilt University, priority 2012, dated 2015).

The term Emax denotes the size of the effect at its maximum, as opposed to the concentration needed. For orientation: pEC50 means −log10 of the EC50, conventionally taken in molar units.

Where two headings read alike, the source gives them in different places.

This assay has as its target human mGluR5 (Homo sapiens, UniProt P41594). The experiment in a line: Cell-based functional Ca2+ mobilization assay (FDSS), potentiation of glutamate EC20 response, HEK293A cells transfected with human mGluR5a (H10H or H12H cell line). The conditions noted are these: in presence of glutamate EC20, ** = compound is an antagonist; for Emax: HEK293-A. On the procedure: Human embryonic kidney (HEK) cells transfected with rat mGluR5 were plated in clear bottom assay plates for assay in a Functional Drug Screening System (FDSS). In the alternative assay, HEK cells transfected with human mGluR5 were plated for assay in the FDSS. In some cases the HEK cells transfected with human mGluR5 are the H10H cell line. Alternatively, the HEK cells transfected with human mGluR5 are the H12H cell line. […] The cells were loaded with a Ca^2+-sensitive fluorescent dye (e.g., Fluo-4), and the plates were washed and placed in the FDSS instrument. After establishment of a fluorescence baseline for about three seconds, the compounds of the present invention were added to the cells, and the response in cells was measured. Five minutes later, an mGluR5 agonist (e.g., glutamate, 3,5-dihydroxyphenylglycine, or quisqualate) was added to the cells, and the response of the cells was measured.
The above described assay can be operated in two modes. In the first mode, a range of concentrations of the present compounds were added to cells, followed by a single fixed concentration of agonist. If a compound acted as a potentiator, an EC50 value for potentiation and a maximum extent of potentiation by the compound at this concentration of agonist was determined by non-linear curve fitting. In the second mode, several fixed concentrations of the present compounds were added to various wells on a plate, followed by a range of concentrations of agonist for each concentration of present compound; the EC50 values for the agonist at each concentration of compound were determined by non-linear curve fitting. A decrease in the EC50 value of the agonist with increasing concentrations of the present compounds (a leftward shift of the agonist concentration-response curve) is an indication of the degree of mGluR5 potentiation at a given concentration of the present compound. An increase in the EC50 value of the agonist with increasing concentrations of the present compounds (a rightward shift of the agonist concentration-response curve) is an indication of the degree of mGluR5 antagonism at a given concentration of the present compound. The second mode also indicates whether the present compounds also affect the maximum response to mGluR5 to agonists.
Human mGluR5a cDNA in pCMV6-XL6 mammalian expression plasmid was purchased from OriGene Technologies, Inc. (catalogue number SC326357) and subcloned into pcDNA3.1(−). Human embryonic kidney (HEK)293A cells were then transfected with human mGluR5a pcDNA3.1(−) using LipofectAmine2000 (Invitrogen) and monoclones were selected and tested for functional response using a Ca^2+ mobilization assay. Monoclones were named for the species (“H” for human) plus the location on the plate (e.g. “10H”).
HEK cells transfected with the human mGluR5a receptor (H10H or H12H cell line) were plated at 15,000 cells/well in clear-bottomed poly-D-lysine-coated assay plates (BD Falcon) in glutamate-glutamine-free growth medium and incubated overnight at 37° C. and 5% CO2. Cell-lines used were either the H10H or H12H cell-lines expressing the human mGluR5 receptor. The following day, the growth medium was removed and the cells were washed with assay buffer containing 1× Hank's balanced salt solution (Invitrogen, Carlsbad, Calif.), 20 mM HEPES, 2.5 mM probenecid, pH 7.4 and left with 20 μL of this reagent. Following this step, the cells were loaded with calcium indicator dye, fluo-4 AM, to a final concentration of 2 μM and incubated for 40-45 min at 37° C. The dye solution was removed and replaced with assay buffer. Cell plates were held for 10-15 min at room temperature and were then loaded into the Functional Drug Screening System 6000 (FDSS 6000, Hamamatsu, Japan).
After establishment of a fluorescence baseline for about 3 seconds, the compounds of the present invention were added to the cells, and the response in cells was measured.

Setting [1] is: H10H cell line expressing recombinant human mGluR5, read-out: pEC50 (converted).
Setting [2] is: H10H cell line expressing recombinant human mGluR5, % of maximal glutamate response.

human mGluR5, sequence (P41594 21-1180 isoform P41594-2 limits assumed): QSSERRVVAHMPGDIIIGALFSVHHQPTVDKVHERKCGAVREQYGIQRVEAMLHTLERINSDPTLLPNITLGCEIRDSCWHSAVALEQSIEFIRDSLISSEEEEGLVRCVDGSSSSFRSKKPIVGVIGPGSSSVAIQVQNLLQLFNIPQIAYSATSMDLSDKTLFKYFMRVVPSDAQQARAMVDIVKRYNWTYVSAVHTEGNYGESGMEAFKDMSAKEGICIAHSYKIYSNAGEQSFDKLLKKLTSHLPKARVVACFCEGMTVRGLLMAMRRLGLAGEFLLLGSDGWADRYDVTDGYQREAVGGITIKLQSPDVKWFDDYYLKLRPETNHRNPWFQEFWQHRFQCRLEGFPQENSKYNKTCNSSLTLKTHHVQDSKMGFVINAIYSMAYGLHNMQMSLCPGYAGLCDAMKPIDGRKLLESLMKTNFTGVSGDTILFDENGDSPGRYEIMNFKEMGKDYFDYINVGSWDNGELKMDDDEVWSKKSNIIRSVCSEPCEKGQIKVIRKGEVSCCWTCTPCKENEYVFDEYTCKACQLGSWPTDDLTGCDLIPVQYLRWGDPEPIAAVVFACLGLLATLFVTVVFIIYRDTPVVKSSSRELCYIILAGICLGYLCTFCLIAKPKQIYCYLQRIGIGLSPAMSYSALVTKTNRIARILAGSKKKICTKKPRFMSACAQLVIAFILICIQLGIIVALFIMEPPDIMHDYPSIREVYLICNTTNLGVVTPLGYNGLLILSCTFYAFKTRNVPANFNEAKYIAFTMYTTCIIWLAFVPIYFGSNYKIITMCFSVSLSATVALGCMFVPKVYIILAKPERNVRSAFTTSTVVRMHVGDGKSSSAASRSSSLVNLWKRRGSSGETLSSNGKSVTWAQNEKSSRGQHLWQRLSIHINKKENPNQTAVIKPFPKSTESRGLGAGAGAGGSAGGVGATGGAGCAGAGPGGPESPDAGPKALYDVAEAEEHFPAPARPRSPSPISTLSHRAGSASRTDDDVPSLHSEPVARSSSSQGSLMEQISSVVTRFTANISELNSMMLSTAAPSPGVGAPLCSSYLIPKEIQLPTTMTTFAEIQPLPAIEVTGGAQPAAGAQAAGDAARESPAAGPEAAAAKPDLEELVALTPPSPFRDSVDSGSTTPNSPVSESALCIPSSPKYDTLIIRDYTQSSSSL

Turning to `O=C(c1ccccn1)N1CCn2nc(OCc3ccccc3)cc2C1` [Example B61], under setting [1], the EC50 was 4270 nM. Further, under setting [2], the Emax amounted to 46%.

On to `O=C(c1cc[nH]n1)N1CCn2nc(OCc3ccccc3)cc2C1` [Example B52], for which the EC50 under setting [1] is 2000 nM. The Emax under setting [2] was determined as 71%.

As for `O=C(c1ccco1)N1CCn2nc(OCc3ccccc3)cc2C1` [Example B55], the Emax under setting [2] is 55%. Moreover, the EC50 (pEC50, H10H cell line expressing recombinant human mGluR5) was 324 nM.

As to `CCC(C)C(=O)N1CCn2nc(OCc3ccccc3)cc2C1` (centres unmarked) [Example B75], the EC50 under setting [1] is more than 30200 nM. Also, the Emax under setting [2] was 27%.

For `O=C(C1CC1c1ccccc1)N1CCn2nc(OCc3ccccc3)cc2C1` (centres unmarked) [Example B71], the EC50 under setting [1] is 2340 nM. Further, under setting [2], the maximal response (Emax) stood at 30%.

As for `O=C(c1ccc(Cl)cc1)N1CCn2nc(OCc3ccccc3)cc2C1` [Example B40], under setting [1], the EC50 was 269 nM. Besides, the Emax under setting [2] came out at 46%.

For “1-(2-(benzyloxy)-6,7-dihydropyrazolo[1,5-a]pyrazin-5(4H)-yl)-2-(tert-butylamino)ethanone [Example B24]”, the “Emax (%)” value under setting [2] was found to be 28%. For the same molecule, for the setting “H10H cell line expressing recombinant human mGluR5”, the negative logarithm of the EC50 (pEC50) is reported as less than 4.52.

Consider `O=C(c1ccncc1)N1CCn2nc(OCc3ccccc3)cc2C1` [Example B62], for which the EC50 under setting [1] is 1860 nM. Also, the Emax under setting [2] came out at 20%.

As to `O=C(c1cccnc1)N1CCn2nc(OCc3ccccc3)cc2C1` [Example B64], the EC50 under setting [1] is more than 10000 nM. In addition, under setting [2], the maximum response (Emax) is 38%.

With `O=C(c1n[nH]c2ccccc12)N1CCn2nc(OCc3ccccc3)cc2C1` [Example B53], the EC50 under setting [1] is 117 nM. Moreover, the Emax under setting [2] was 69%.

On to `CCOCC(=O)N1CCn2nc(OCc3ccccc3)cc2C1` [Example B27], for which the EC50 under setting [1] was more than 30200 nM. Also, the Emax under setting [2] is 17%.

Turning to `O=C(c1ccc(F)cc1)N1CCn2nc(OCc3ccnc(C(F)(F)F)c3)cc2C1` [Example B123], the EC50 under setting [1] is not below 10000 nM. Also, under setting [2], the maximal effect (Emax) came out at 30%.

For the molecule `Cn1cc(C(=O)N2CCn3nc(OCc4cccc(F)c4)cc3C2)c2ccccc21` [Example B79], under setting [1], the EC50 is 1320 nM. Moreover, under setting [2], the Emax was 32%.

`O=C(c1ccc(F)cc1)N1CCn2nc(OCc3cc[n+]([O-])cc3)cc2C1` [Example B135]: the EC50 under setting [1] was not below 10000 nM. In addition, under setting [2], the Emax worked out at 38%.

Turning to `O=C(c1ccc(F)c(F)c1)N1CCn2nc(OCc3ccccc3)cc2C1` [Example B49], the EC50 under setting [1] was 692 nM. Besides, the Emax under setting [2] was found to be 57%.

As to `O=C(c1ccc(F)cc1)N1CCn2nc(OCc3ccnc(F)c3)cc2C1` [Example B116], the EC50 under setting [1] is not below 10000 nM. In addition, the Emax under setting [2] turned out to be 51%.

Turning to `O=C(CCC(F)(F)F)N1CCn2nc(OCc3ccccc3)cc2C1` [Example B70], the EC50 under setting [1] is more than 30200 nM. The Emax under setting [2] was determined as 25%.

For `O=C(c1ccc(F)cc1)N1CCn2nc(OCc3ccnc(Cl)c3)cc2C1` [Example B126], under setting [1], the EC50 was 178 nM. Besides, the Emax under setting [2] was found to be 35%.

`O=C(c1ccc(F)cc1)N1CCn2nc(OCc3ccccc3)cc2C1` [Example B1, 2-(benzyloxy)-5-[(4-fluorophenyl)carbonyl]-4,5,6,7-tetrahydropyrazolo[1,5-a]pyrazine]: the EC50 under setting [1] is 166 nM. Besides, the Emax under setting [2] worked out at 68%.

In the case of `O=C(c1ccnc(F)c1)N1CCn2nc(OCc3ccccc3)cc2C1` [Example B138], the EC50 under setting [1] is 891 nM. For the same molecule, the Emax under setting [2] is 37%.

As to `O=C(CC(F)(F)F)N1CCn2nc(OCc3ccccc3)cc2C1` [Example B69], the EC50 under setting [1] was more than 30200 nM. In addition, the Emax under setting [2] amounted to 16%.

Take `O=C(c1ccccc1C(F)(F)F)N1CCn2nc(OCc3ccccc3)cc2C1` [Example B41]: the EC50 under setting [1] is more than 30200 nM. Under setting [2], the Emax is 25%.

For `Cn1cc(C(=O)N2CCn3nc(OCc4cccc(F)c4)cc3C2)cc1Cl` [Example B93], the EC50 under setting [1] was 347 nM. The Emax under setting [2] is 65%.

Consider `COc1ccc(C(=O)N2CCn3nc(OCc4ccccc4)cc3C2)cc1F` [Example B45], for which the EC50 under setting [1] was more than 30200 nM. For the same molecule, under setting [2], the Emax came to 19%.

Turning to `O=C(c1ncc(F)cc1F)N1CCn2nc(OCc3ccccc3)cc2C1` [Example B65], under setting [1], the EC50 is more than 10000 nM. Also, the Emax under setting [2] was determined as 56%.

As to `O=C(c1ccccc1)N1CCn2nc(OCc3ccccc3)cc2C1` [Example B50], the EC50 under setting [1] was 141 nM. The Emax under setting [2] was 55%.

For `C[C@@H]1Cn2nc(OCc3ccccc3)cc2CN1C(=O)c1ccc(F)cc1` [Example B7], under setting [1], the EC50 is 813 nM. For the same molecule, under setting [2], the Emax came to 62%.

Turning to `O=C(COCc1ccccc1)N1CCn2nc(OCc3ccccc3)cc2C1` [Example B72], the EC50 under setting [1] is 3800 nM. Further, the Emax under setting [2] was found to be 34%.

As for `CCOc1ccccc1C(=O)N1CCn2nc(OCc3ccccc3)cc2C1` [Example B48], the EC50 under setting [1] is more than 30200 nM. Moreover, the Emax under setting [2] was 13%.

In the case of `O=C(c1ccccc1Cl)N1CCn2nc(OCc3ccccc3)cc2C1` [Example B44], the EC50 under setting [1] is 95.5 nM. Moreover, the Emax under setting [2] is 33%.

As to `CC(C)(C)CC(=O)N1CCn2nc(OCc3ccccc3)cc2C1` [Example B68], the EC50 under setting [1] was 355 nM. Besides, the Emax under setting [2] came out at 69%.

With `Cn1ccc(C(=O)N2CCn3nc(OCc4cccc(F)c4)cc3C2)c1` [Example B92], the EC50 under setting [1] was 537 nM. In addition, the Emax under setting [2] turned out to be 52%.

Regarding `O=C(N1CCn2nc(OCc3ccccc3)cc2C1)C12C3C4C5C3C1C5C42` (centres unmarked) [Example B125], the EC50 under setting [1] is 245 nM. For the same molecule, the Emax under setting [2] came out at 73%.

For the molecule `CN(C)c1cccc(C(=O)N2CCn3nc(OCc4ccccc4)cc3C2)n1` [Example B88], the EC50 under setting [1] is 617 nM. Besides, the Emax under setting [2] was determined as 40%.

With `N#Cc1cc(COc2cc3n(n2)CCN(C(=O)c2ccc(F)cc2)C3)ccn1` [Example B127], the EC50 under setting [1] is 562 nM. The maximal effect (Emax) under setting [2] came to 36%.

Regarding `O=C(c1ccc(Cl)c(Cl)c1)N1CCn2nc(OCc3ccccc3)cc2C1` [Example B42], the EC50 under setting [1] is 1230 nM. Also, under setting [2], the Emax came out at 39%.

Consider `CC(=O)N1CCn2nc(OCc3ccccc3)cc2C1` [Example B108], for which the EC50 under setting [1] is more than 30200 nM. Besides, the Emax under setting [2] stood at 28%.

For the molecule `Cn1ccc(COc2cc3n(n2)CCN(C(=O)c2ccc(F)cc2)C3)cc1=O` [Example B128], under setting [1], the EC50 is more than 30200 nM. In addition, the Emax under setting [2] was 28%.

`N#Cc1ccc(C(=O)N2CCn3nc(OCc4ccccc4)cc3C2)c(F)c1` [Example B46]: under setting [1], the EC50 is more than 30200 nM. The Emax under setting [2] worked out at 20%.

Consider `Cn1c(Cl)ccc1C(=O)N1CCn2nc(OCc3cccc(F)c3)cc2C1` [Example B80, (5-chloro-1-methyl-1H-pyrrol-2-yl)-[2-(3-fluoro-benzyloxy)-6,7-dihydro-4H-pyrazolo[1,5-a]pyrazin-5-yl]-methanone], for which the EC50 under setting [1] was 22.9 nM. The Emax under setting [2] is 65%.

Turning to `CC(C)OCC(=O)N1CCn2nc(OCc3ccccc3)cc2C1` [Example B23], under setting [1], the EC50 was 3240 nM. The Emax under setting [2] worked out at 34%.

In the case of `O=C(c1ccsc1)N1CCn2nc(OCc3ccccc3)cc2C1` [Example B60], the EC50 under setting [1] was 275 nM. The Emax under setting [2] was 61%.

Consider `Cn1c(Cl)ccc1C(=O)N1CCCn2nc(OCc3ccccc3)cc2C1` [Example B90], for which, under setting [1], the EC50 is 47.9 nM. For the same molecule, the Emax under setting [2] worked out at 74%.
